Data published in ChEMBL document CHEMBL1201862, “PubChem BioAssay data set” (2004).
Where “and” joins values, the source holds several entries; their conditions need not be identical. Equal entries are not always repeated.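 Five compound concentrations were applied to cells in 96-well plates for 48 hours; endpoints were derived by simple linear interpolation of the resulting dose-response curve. Abbreviation: GI50, concentration required for 50% inhibition of growth.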 Calls of active or inactive are those of the source. Rule as the data show it: active = GI50 up to about 1.1 µM and inactive = higher.

Tests used:
Experiment in all cases: NCI anticancer screen, dose series, 48 h
[1] = tested on: SNB-75
[2] = tested on: OVCAR-8
[3] = tested on: HCT-116
[4] = tested on: XF498
[5] = tested on: DMS-114
[6] = tested on: RXF 393
[7] = tested on: SK-MEL-28
[8] = tested on: M14
[9] = tested on: HT-29
[10] = tested on: U-251
[11] = tested on: LXFL 529
[12] = tested on: SR
[13] = tested on: SNB-78
[14] = tested on: HOP-18
[15] = tested on: OVCAR-4
[16] = tested on: SF-539
[17] = tested on: EKVX
[18] = tested on: RXF 631
[19] = tested on: IGROV-1
[20] = tested on: MOLT-4
[21] = tested on: LOX IMVI
[22] = tested on: A498
[23] = tested on: SK-MEL-2
[24] = tested on: KM-20L2
[25] = tested on: SK-MEL-5
[26] = tested on: ACHN
[27] = tested on: RPMI-8226
[28] = tested on: NCI-H23
[29] = tested on: SW-620
[30] = tested on: SNB-19
[31] = tested on: NCI-H460
[32] = tested on: SF-268
[33] = tested on: OVCAR-5
[34] = tested on: DLD-1
[35] = tested on: KM12
[36] = tested on: HCC 2998
[37] = tested on: M19-MEL
[38] = tested on: Malme-3M
[39] = tested on: DMS-273
[40] = tested on: A549
[41] = tested on: HL-60
[42] = tested on: CAKI-1
[43] = tested on: HOP-62
[44] = tested on: UACC-62
[45] = tested on: SF-295
[46] = tested on: SK-OV-3
[47] = tested on: UACC-257
[48] = tested on: TK-10
[49] = tested on: K562
[50] = tested on: CCRF-CEM
[51] = tested on: UO-31
[52] = tested on: 786-0
[53] = tested on: HCT-15
[54] = tested on: SN12C
[55] = tested on: OVCAR-3
[56] = tested on: HOP-92
[57] = tested on: COLO 205

`Clc1cc2n[se]nc2cc1Cl` was tested, and the GI50 [1] was 36.1 µM (inactive), the GI50 [2] was > 100 µM (inactive) and the GI50 [3] was > 100 µM (inactive). For the same molecule, the GI50 [4] was > 100 µM (inactive), the GI50 [5] was > 100 µM (inactive) and the GI50 [6] was > 100 µM (inactive). The GI50 [7] was > 100 µM (inactive), the GI50 [8] was > 100 µM (inactive) and the GI50 [9] was > 100 µM (inactive). The GI50 [10] was > 100 µM (inactive), the GI50 [11] was > 100 µM (inactive) and the GI50 [12] was > 100 µM (inactive). For the same molecule, the GI50 [13] was > 100 µM (inactive), the GI50 [14] was > 100 µM (inactive) and the GI50 [15] was > 100 µM (inactive). The GI50 [16] was > 100 µM (inactive), the GI50 [17] was > 100 µM (inactive) and the GI50 [18] was > 100 µM (inactive). The GI50 [19] was > 100 µM (inactive), the GI50 [20] was > 100 µM (inactive) and the GI50 [21] was > 100 µM (inactive). For the same molecule, the GI50 [22] was > 100 µM (inactive), the GI50 [23] was > 100 µM (inactive) and the GI50 [24] was > 100 µM (inactive). For the same molecule, the GI50 [25] was > 100 µM (inactive), the GI50 [26] was > 100 µM (inactive) and the GI50 [27] was > 100 µM (inactive). The GI50 [28] was > 100 µM (inactive), the GI50 [29] was > 100 µM (inactive) and the GI50 [30] was > 100 µM (inactive). The GI50 [31] was > 100 µM (inactive), the GI50 [32] was > 100 µM (inactive) and the GI50 [33] was > 100 µM (inactive). The GI50 [34] was > 100 µM (inactive), the GI50 [35] was > 100 µM (inactive) and the GI50 [36] was > 100 µM (inactive). For the same molecule, the GI50 [37] was > 100 µM (inactive), the GI50 [38] was > 100 µM (inactive) and the GI50 [39] was > 100 µM (inactive). The GI50 [40] was > 100 µM (inactive), the GI50 [41] was 84.1 µM (inactive) and the GI50 [42] was > 100 µM (inactive). The GI50 [43] was > 100 µM (inactive), the GI50 [44] was > 100 µM (inactive) and the GI50 [45] was > 100 µM (inactive). The GI50 [46] was > 100 µM (inactive), the GI50 [47] was > 100 µM (inactive) and the GI50 [48] was > 100 µM (inactive). For the same molecule, the GI50 [49] was > 100 µM (inactive), the GI50 [50] was > 100 µM (inactive) and the GI50 [51] was > 100 µM (inactive). The GI50 [52] was > 100 µM (inactive), the GI50 [53] was greater than 100 µM and the GI50 [54] was > 100 µM (inactive).
With `O=S(O)CCCCSSCC(O)C(O)CSSCCCCS(=O)O` (configuration not stated) the GI50 [1] was 12 µM (inactive) and 17.3 µM (inactive), the GI50 [2] was 30.1 µM (inactive) and 22.2 µM (inactive) and the GI50 [4] was 12.4 µM (inactive) and 19 µM (inactive). For the same molecule, the GI50 [5] was 18.3 µM (inactive) and 14.6 µM (inactive), the GI50 [6] was 22.3 µM (inactive) and 14.7 µM (inactive) and the GI50 [7] was 21.6 µM (inactive) and 14.9 µM (inactive). The GI50 [8] was 12.9 µM (inactive) and 9.08 µM (inactive), the GI50 [9] was 13.5 µM (inactive) and 9.16 µM (inactive) and the GI50 [10] was 71.1 µM (inactive) and 50.6 µM (inactive). The GI50 [11] was 9.35 µM (inactive) and 12.5 µM (inactive), the GI50 [55] was 11.4 µM (inactive) and 12.4 µM (inactive) and the GI50 [13] was 18.2 µM (inactive) and 20.9 µM (inactive). The GI50 [14] was > 100 µM (inactive), the GI50 [15] was 10.7 µM (inactive) and 5.66 µM (inactive) and the GI50 [16] was 17.6 µM (inactive) and 23 µM (inactive). For the same molecule, the GI50 [17] was 26.9 µM (inactive) and 33.4 µM (inactive), the GI50 [18] was 22.2 µM (inactive) and 29.2 µM (inactive) and the GI50 [56] was 26.4 µM (inactive) and 39.7 µM (inactive). For the same molecule, the GI50 [19] was 83.6 µM (inactive) and 44.5 µM (inactive), the GI50 [20] was 918 nM (active) and 697 nM (active) and the GI50 [21] was 15.4 µM (inactive) and 10.8 µM (inactive). The GI50 [22] was 64.3 µM (inactive) and 61.9 µM (inactive), the GI50 [23] was 17.4 µM (inactive) and 15 µM (inactive) and the GI50 [24] was > 100 µM (inactive) and 50.6 µM (inactive). For the same molecule, the GI50 [26] was 26.1 µM (inactive) and 22.1 µM (inactive), the GI50 [27] was 13.5 µM (inactive) and 11.8 µM (inactive) and the GI50 [28] was 18.4 µM (inactive) and 29.2 µM (inactive). For the same molecule, the GI50 [29] was 21.5 µM (inactive) and 19.5 µM (inactive), the GI50 [30] was 50 µM (inactive) and 55.6 µM (inactive) and the GI50 [31] was 52.4 µM (inactive) and 40.4 µM (inactive). The GI50 [32] was 17.5 µM (inactive) and 12.2 µM (inactive), the GI50 [33] was > 100 µM (inactive) and 74.8 µM (inactive) and the GI50 [34] was 41.1 µM (inactive) and 68.4 µM (inactive). The GI50 [35] was 21.2 µM (inactive) and 15 µM (inactive), the GI50 [57] was 18.5 µM (inactive) and 14.6 µM (inactive) and the GI50 [37] was 5.48 µM (inactive) and 3.37 µM (inactive). The GI50 [38] was 7.08 µM (inactive) and 7.24 µM (inactive), the GI50 [39] was 35 µM (inactive) and 19.7 µM (inactive) and the GI50 [40] was 34.5 µM (inactive) and 27.1 µM (inactive). The GI50 [41] was 10.2 µM (inactive) and 10.6 µM (inactive), the GI50 [42] was 51.6 µM (inactive) and 56.9 µM (inactive) and the GI50 [43] was > 100 µM (inactive). The GI50 [44] was 12.9 µM (inactive) and 8.73 µM (inactive), the GI50 [45] was 15.5 µM (inactive) and 12.4 µM (inactive) and the GI50 [46] was > 100 µM (inactive). For the same molecule, the GI50 [47] was 8.39 µM (inactive) and 4.7 µM (inactive), the GI50 [48] was 68.2 µM (inactive) and 53.8 µM (inactive) and the GI50 [49] was 18.7 µM (inactive) and 12.6 µM (inactive). The GI50 [50] was 3.37 µM (inactive) and 3.21 µM (inactive), the GI50 [51] was 16.7 µM (inactive) and 9.33 µM (inactive) and the GI50 [52] was > 100 µM (inactive). The GI50 [53] was 30.5 µM and 29.6 µM and the GI50 [54] was 40.5 µM (inactive) and 34.9 µM (inactive).
